According to publication PMC10791652, “The adhesion GPCR GPR116/ADGRF5 has a dual function in pancreatic islets regulating somatostatin release and islet development” (Communications Biology, 2024):
Numbered stars: 1 amine (or outer) side, 2 acyl side, 3 side chain; on linkers, the order of the positions; unused ones are H or OH. Bridge positions count the residues as written; N and C are the ends. Square brackets hold non-standard residues; d marks the D form. Ends that are not written are not given here. Peptide text beside a SMILES is read from it. * marks the point of attachment. Leu(3R-OH,Nα-propionyl) = CCC(=O)N[C@H](C(=O)*)[C@H](O)C(C)C; X1 = CC(C)[C@@H](O[*:3])[C@H](N[*:1])C(=O)[*:2]; NMeT = CN[C@H](C(=O)O)[C@@H](C)O; dPhLac = O=C(O)[C@H](O)Cc1ccccc1; NMeA = CN[C@@H](C)C(=O)O; NMeDha = C=C(NC)C(=O)O

How the values were obtained:
[1] = test system: Gαq/11 protein; test: Somatostatin secretion from islets after pre-incubation with Gq inhibitor; format: cell-based, mouse; conditions: pre-incubation with FR900359, then 2 mM p116, high glucose, 30 min
Description: Equilibration of five islets was performed in KRB containing 2.8 mM glucose for 30 min at 37 °C in 96-well plates. If not mentioned otherwise, islets were stimulated with peptide solution or respective controls in KRB for 30 min at 37 °C. Islets were lysed with acid ethanol and supernatant as well as lysates kept frozen at −20 °C until measurement. To measure insulin the AlphaLISA technology (Perkin Elmer) was used according to the manufacturer’s protocol in 384-well OptiPlate microplates (Perkin Elmer) with the EnVision Multilabel Reader (Perkin Elmer). Somatostatin amounts were determined using either AlphaLISA (Perkin Elmer) or ELISA (Phoenix Pharmaceuticals). For reliable measurement protocol adaptions were necessary. For AlphaLISA these were as follows: increasing sample volumes to 35 µl/well, reduced bead volume of 5 µl/well, and an extended incubation period with donor beads of 90 min. For the ELISA measurement the sample incubation time was extended to over-night and the biotinylated peptide was diluted 1:5 to achieve reliable results.

[2] = test system: mock-transfected HEK293T cells; test: Fura-2 Ca2+ imaging in mock-transfected HEK293T cells; format: cell-based; conditions: 1 mM peptide or 100 µM ATP
Description: (§1) Fura-2-based Ca^2+ imaging was performed in transfected HEK293T cells (Supplementary Experimental Procedures) and intact pancreatic islets using a monochromator-based imaging system, and the imaging software TILLvisION 4.0 (T.I.L.L. Photonics). Emitted fluorescence (excited at 340 and 380 nm) was acquired at intervals of 2 seconds and corrected for background fluorescence. HEK293T cells and islets were loaded with 5 µM fura-2 AM in standard bath solution containing 140 mM NaCl, 10 mM HEPES, 5 mM KCl, 2 mM CaCl2, 1 mM MgCl2, and 3 mM glucose for 30 or 60 min. HEK293T cells (25,000 cells/well) were seeded into 24-well plates on poly-L-lysine coated glass cover slips and were transiently transfected with plasmids encoding for GPR116 and GFP the next day. Ca^2+ imaging was carried out 72 h post transfection. HEK293T cells were exposed to p116sc, p116 (1 mM each), and ATP (100 µM) in standard bath solution. Pancreatic mouse islets (3 - 4 islets per coverslip) were transferred one day after preparation into 12-well plates on poly-L-lysine coated glass cover slips. 48 h after seeding islets were exposed to 1 mM p116sc, 1 mM p116, and 100 µM carbachol (CCh) in standard bath solution.

[3] = test system: endogenous purinergic receptors; test: Fura-2 Ca2+ imaging in HEK293T cells (ATP control); format: cell-based; conditions: 100 µM ATP
Description: as §1

[4] = test system: growth hormone secretagogue receptor/ghrelin (GHS-R) receptor; test: Fura-2 Ca2+ imaging in intact pancreatic islets (ghrelin); format: cell-based, mouse; conditions: 300 nM ghrelin
[5] = test system: muscarinic acetylcholine receptors; test: Fura-2 Ca2+ imaging in intact pancreatic islets (carbachol positive control); format: cell-based, mouse; conditions: 100 µM carbachol, fura-2 ratio F340/F380
Description: as §1

Compound: C=C1C(=O)N[C@@H](C)C(=O)N(C)[C@@H](C)C(=O)N[C@@H]([C@H](OC(=O)[C@@H](NC(=O)CC)[C@H](O)C(C)C)C(C)C)C(=O)N(C)[C@@H]([C@@H](C)OC)C(=O)O[C@H](C(C)C)[C@H](NC(C)=O)C(=O)O[C@H](Cc2ccccc2)C(=O)N1C [FR900359] (Ac-[X1][dPhLac][NMeDha]A[NMeA][X1](Leu(3R-OH,Nα-propionyl))[NMeT](Me); ester 1-C)
- effect of Gq inhibitor on p116-induced somatostatin secretion [1]: completely abolished somatostatin secretion

Compound: Nc1ncnc2c1ncn2[C@@H]1O[C@H](COP(=O)(O)OP(=O)(O)OP(=O)(O)O)[C@@H](O)[C@H]1O [ATP]
- intracellular Ca2+ response in mock-transfected cells [2]: strongly increased intracellular Ca2+ levels
- intracellular Ca2+ transients in GPR116-transfected HEK293T cells [3]: induced

Compound: ghrelin (GSSFLSPEHQRVQQRKESKKPPAKLQP; ends and bridges not checked; UniProt Q9UBU3 24-50, looked up)
- Ca2+ response in insulin-expressing beta cells of islets ([4]; MIP-GFP mouse islets, EGFP-positive regions): absent in insulin-expressing beta cells
- Ca2+ response in pancreatic islets ([4]; then 1 mM p116, MIP-GFP mouse islets): elicited Ca^2+ signals with partially overlapping localization

Compound: C[N+](C)(C)CCOC(N)=O [CCh, carbachol]
- Ca2+ response in pancreatic islets [5]: strong Ca^2+ elevation
